# Tested on: 997537-175-T-J1-PDC complex spheroid viability
# Test: Anticancer human tumor 997537-175-T-J1-PDC patient-derived colon adenocarcinoma cell line growth inhibition [GQUAD]
# Conditions: for IC50: curve of first compound; for viability, T/C: stronger effect = lower value
# Summary of the method: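 Tumor cells were grown as complex spheroids with HUVEC endothelial cells and mesenchymal stem cells as stroma. G-quadruplex stabilizers were combined with targeted agents over half-log dilutions from near the clinical Cmax, or from 10 microM.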
# [1] = second compound 0.0316 µM, first compound 0.0316 µM
# [2] = second compound 0.0316 µM, first compound 0.1 µM
# [3] = second compound 0.0316 µM, first compound 0.316 µM
# [4] = second compound 0.0316 µM, first compound 1 µM
# [5] = second compound 0.0316 µM, first compound 3.16 µM
# [6] = second compound 0.0316 µM, first compound 10 µM
# [7] = second compound 0.1 µM, first compound 0.0316 µM
# [8] = second compound 0.1 µM, first compound 0.1 µM
# [9] = second compound 0.1 µM, first compound 0.316 µM
# [10] = second compound 0.1 µM, first compound 1 µM
# [11] = second compound 0.1 µM, first compound 3.16 µM
# [12] = second compound 0.1 µM, first compound 10 µM
# [13] = second compound 0.316 µM, first compound 0.0316 µM
# [14] = second compound 0.316 µM, first compound 0.1 µM
# [15] = second compound 0.316 µM, first compound 0.316 µM
# [16] = second compound 0.316 µM, first compound 1 µM
# [17] = second compound 0.316 µM, first compound 3.16 µM
# [18] = second compound 0.316 µM, first compound 10 µM
# [19] = second compound 1 µM, first compound 0.0316 µM
# [20] = second compound 1 µM, first compound 0.1 µM
# [21] = second compound 1 µM, first compound 0.316 µM
# [22] = second compound 1 µM, first compound 1 µM
# [23] = second compound 1 µM, first compound 3.16 µM
# [24] = second compound 1 µM, first compound 10 µM
# [25] = second compound 3.16 µM, first compound 0.0316 µM
# [26] = second compound 3.16 µM, first compound 0.1 µM
# [27] = second compound 3.16 µM, first compound 0.316 µM
# [28] = second compound 3.16 µM, first compound 1 µM
# [29] = second compound 3.16 µM, first compound 3.16 µM
# [30] = second compound 3.16 µM, first compound 10 µM
# [31] = second compound 10 µM, first compound 0.0316 µM
# [32] = second compound 10 µM, first compound 0.1 µM
# [33] = second compound 10 µM, first compound 0.316 µM
# [34] = second compound 10 µM, first compound 1 µM
# [35] = second compound 10 µM, first compound 3.16 µM
# [36] = second compound 10 µM, first compound 10 µM
# 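Note: spheroids exposed to the agents for 7 days.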
# 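Throughout, for viability, T/C: 100% = DMSO vehicle control viability.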
smiles,measurement,setting,value
C=CCn1c(=O)c2cnc(Nc3ccc(N4CCN(C)CC4)cc3)nc2n1-c1cccc(C(C)(C)O)n1 + Cc1cnc(CNC(=O)c2c(=O)c3ccc(N4CCCN(C)CC4)nc3n3c2sc2ccccc23)cn1,IC50,second compound 0.0316 µM,1.87 µM
same,IC50,second compound 0.1 µM,2.73 µM
same,IC50,second compound 0.316 µM,2.55 µM
same,IC50,second compound 1 µM,7.65 µM
same,IC50,second compound 3.16 µM,> 10 µM
same,IC50,second compound 10 µM,8.48 µM
same,"viability, T/C",[1],105%
same,"viability, T/C",[2],76.5%
same,"viability, T/C",[3],99%
same,"viability, T/C",[4],70.5%
same,"viability, T/C",[5],32.8%
same,"viability, T/C",[6],20.4%
same,"viability, T/C",[7],105%
same,"viability, T/C",[8],104%
same,"viability, T/C",[9],98.3%
same,"viability, T/C",[10],71.2%
same,"viability, T/C",[11],48.6%
same,"viability, T/C",[12],30.4%
same,"viability, T/C",[13],89%
same,"viability, T/C",[14],94.2%
same,"viability, T/C",[15],91.3%
same,"viability, T/C",[16],74%
same,"viability, T/C",[17],44.8%
same,"viability, T/C",[18],38.1%
same,"viability, T/C",[19],80.5%
same,"viability, T/C",[20],99.8%
same,"viability, T/C",[21],112%
same,"viability, T/C",[22],61.1%
same,"viability, T/C",[23],76%
same,"viability, T/C",[24],43.2%
same,"viability, T/C",[25],63.1%
same,"viability, T/C",[26],98.4%
same,"viability, T/C",[27],96%
same,"viability, T/C",[28],107%
same,"viability, T/C",[29],75.2%
same,"viability, T/C",[30],50.6%
same,"viability, T/C",[31],73.8%
same,"viability, T/C",[32],99.3%
same,"viability, T/C",[33],87.2%
same,"viability, T/C",[34],87%
same,"viability, T/C",[35],79.8%
same,"viability, T/C",[36],44.8%
Nc1ccn(C2OC(CO)C(O)C2(F)F)c(=O)n1 (stereo unspecified) + Cc1cnc(CNC(=O)c2c(=O)c3ccc(N4CCCN(C)CC4)nc3n3c2sc2ccccc23)cn1,IC50,second compound 0.0316 µM,> 10 µM
same,IC50,second compound 0.1 µM,> 10 µM
same,IC50,second compound 0.316 µM,> 10 µM
same,IC50,second compound 1 µM,> 10 µM
same,IC50,second compound 3.16 µM,> 10 µM
same,IC50,second compound 10 µM,> 10 µM
same,"viability, T/C",[1],90.3%
same,"viability, T/C",[2],99.5%
same,"viability, T/C",[3],87.3%
same,"viability, T/C",[4],66.6%
same,"viability, T/C",[5],66.5%
same,"viability, T/C",[6],56.4%
same,"viability, T/C",[7],99.4%
same,"viability, T/C",[8],84.5%
same,"viability, T/C",[9],94.7%
same,"viability, T/C",[10],56.4%
same,"viability, T/C",[11],89.4%
same,"viability, T/C",[12],83.8%
same,"viability, T/C",[13],93.1%
same,"viability, T/C",[14],108%
same,"viability, T/C",[15],69.4%
same,"viability, T/C",[16],76.6%
same,"viability, T/C",[17],94.6%
same,"viability, T/C",[18],92.9%
same,"viability, T/C",[19],89.8%
same,"viability, T/C",[20],103%
same,"viability, T/C",[21],102%
same,"viability, T/C",[22],68.3%
same,"viability, T/C",[23],104%
same,"viability, T/C",[24],77.6%
same,"viability, T/C",[25],68.8%
same,"viability, T/C",[26],96.6%
same,"viability, T/C",[27],106%
same,"viability, T/C",[28],101%
same,"viability, T/C",[29],85.6%
same,"viability, T/C",[30],89.3%
same,"viability, T/C",[31],103%
same,"viability, T/C",[32],85.9%
same,"viability, T/C",[33],113%
same,"viability, T/C",[34],72.9%
same,"viability, T/C",[35],91%
same,"viability, T/C",[36],73.7%
CC1COCCN1c1cc(-c2ccnn2C)c2ccnc(-c3ccn[nH]3)c2n1 (stereo unspecified) + CN(C)c1ccc(Nc2c3ccc(NC(=O)CCN4CCCC4)cc3nc3cc(NC(=O)CCN4CCCC4)ccc23)cc1,IC50,second compound 0.0316 µM,0.8 µM
same,IC50,second compound 0.1 µM,2.46 µM
same,IC50,second compound 0.316 µM,> 10 µM
same,IC50,second compound 1 µM,> 10 µM
same,IC50,second compound 3.16 µM,> 10 µM
same,IC50,second compound 10 µM,0.264 µM
same,"viability, T/C",[1],86.6%
same,"viability, T/C",[2],78.5%
same,"viability, T/C",[3],58.1%
same,"viability, T/C",[4],43.9%
same,"viability, T/C",[5],46.8%
same,"viability, T/C",[6],30.1%
same,"viability, T/C",[7],95.8%
same,"viability, T/C",[8],81.9%
same,"viability, T/C",[9],69.5%
same,"viability, T/C",[10],56.6%
same,"viability, T/C",[11],40.1%
same,"viability, T/C",[12],52.9%
same,"viability, T/C",[13],97.7%
same,"viability, T/C",[14],69.4%
same,"viability, T/C",[15],61.6%
same,"viability, T/C",[16],35.5%
same,"viability, T/C",[17],54.9%
same,"viability, T/C",[18],59.8%
same,"viability, T/C",[19],82.5%
same,"viability, T/C",[20],59.7%
same,"viability, T/C",[21],56.1%
same,"viability, T/C",[22],34%
same,"viability, T/C",[23],68.8%
same,"viability, T/C",[24],51%
same,"viability, T/C",[25],60.6%
same,"viability, T/C",[26],70.3%
same,"viability, T/C",[27],52.3%
same,"viability, T/C",[28],44.1%
same,"viability, T/C",[29],67.8%
same,"viability, T/C",[30],60.6%
same,"viability, T/C",[31],89.6%
same,"viability, T/C",[32],68.8%
same,"viability, T/C",[33],43.8%
same,"viability, T/C",[34],32.6%
same,"viability, T/C",[35],50%
same,"viability, T/C",[36],59.5%

# Reference: PubChem BioAssay AID2060487 (Molecular Pharmacology Branch, DTP, NCI, 2025)
